According to PubChem BioAssay (NCI):
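Five concentrations, 48 hours, 96-well plates. GI50: concentration for 50% inhibition of growth. Definition used: TGI = concentration required for complete inhibition of growth.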

Legend:
Assay in all cases: NCI tumour cell line growth inhibition, 48 h
COLO 205 colon = test system: COLO 205 colon
OVCAR-3 ovarian = test system: OVCAR-3 ovarian
RPMI-8226 leukemia = test system: RPMI-8226 leukemia
UACC-62 melanoma = test system: UACC-62 melanoma
MDA-MB-435 = test system: MDA-MB-435
SF-295 CNS = test system: SF-295 CNS
HS 578T breast = test system: HS 578T breast
K-562 leukemia = test system: K-562 leukemia
SK-OV-3 ovarian = test system: SK-OV-3 ovarian
SK-MEL-2 melanoma = test system: SK-MEL-2 melanoma

| Compound | GI50 (COLO 205 colon) | TGI (COLO 205 colon) | GI50 (OVCAR-3 ovarian) | TGI (OVCAR-3 ovarian) | GI50 (RPMI-8226 leukemia) | TGI (RPMI-8226 leukemia) | GI50 (UACC-62 melanoma) | TGI (UACC-62 melanoma) | GI50 (MDA-MB-435) | TGI (MDA-MB-435) | GI50 (SF-295 CNS) | TGI (SF-295 CNS) | GI50 (HS 578T breast) | TGI (HS 578T breast) | GI50 (K-562 leukemia) | TGI (K-562 leukemia) | GI50 (SK-OV-3 ovarian) | TGI (SK-OV-3 ovarian) | TGI (SK-MEL-2 melanoma) | GI50 (SK-MEL-2 melanoma) |
| --- | --- | --- | --- | --- | --- | --- | --- | --- | --- | --- | --- | --- | --- | --- | --- | --- | --- | --- | --- | --- |
| O=C(Cc1ccc(Nc2ccnc(C(F)(F)F)c2)cc1)Nc1cc(Cl)ccc1O | 21.7 µM | 55.4 µM | 3.37 µM | 13.6 µM | 1.25 µM | 4.1 µM | 2.75 µM | 13.9 µM | 4.33 µM | 17.5 µM | 3.06 µM | 11.9 µM | 3.7 µM | 26 µM | 2.96 µM | 12 µM | 15.8 µM | 54.9 µM | – | – |
| Oc1ccc(Oc2cnc3cc(Cl)ccc3n2)cc1 | 92.4 µM | > 100 µM | 15.8 µM | 38.4 µM | 16.7 µM | > 100 µM | 40.9 µM | > 100 µM | 23.8 µM | 97.3 µM | 22.6 µM | 74.5 µM | 35.5 µM | > 100 µM | 37.7 µM | > 100 µM | > 100 µM | > 100 µM | – | – |
| CN1C(=O)CCC1c1ccc2c(c1)oc(=O)n2C (stereo not given) | – | > 100 µM | – | – | – | > 100 µM | – | > 100 µM | – | – | – | > 100 µM | – | – | – | > 100 µM | – | > 100 µM | > 100 µM | – |
| COc1cc(-c2nc(-c3ccc(-c4nc5ccc(F)cc5[nH]4)cc3)no2)cc(OC)c1OC | 4.77 µM | 17 µM | 2.56 µM | 5.83 µM | 1.94 µM | 5.35 µM | 2.35 µM | 6.61 µM | 2.73 µM | 10.7 µM | 2.31 µM | 7.02 µM | 2.27 µM | 7.36 µM | – | – | 4.12 µM | 31.4 µM | 13.4 µM | 4.21 µM |
| O=C1c2cccc3c(Cl)ccc(c23)C(=O)N1CCCN1CCN(CCCN2C(=O)c3cccc4c(Cl)ccc(c34)C2=O)CC1 | – | > 100 µM | – | > 100 µM | – | > 100 µM | – | > 100 µM | – | – | – | > 100 µM | – | – | – | > 100 µM | – | > 100 µM | > 100 µM | – |
| O=S1c2ccccc2NC(c2ccc3ccccc3c2)CC1c1ccccc1 (stereo not given) | – | 74.4 µM | – | 35.1 µM | – | 60.8 µM | – | > 100 µM | – | – | – | 55 µM | – | – | – | 37.5 µM | – | > 100 µM | > 100 µM | – |
| COc1ccc2c(c1)[nH]c(=O)c1c3cc(OC)c(OC)cc3cn21 | < 0.01 µM | 0.0635 µM | < 0.01 µM | < 0.01 µM | < 0.0134 µM | – | < 0.01 µM | 21 µM | < 0.01 µM | < 0.01 µM | < 0.01 µM | 0.409 µM | < 0.01 µM | < 0.0231 µM | – | – | < 0.0111 µM | 17.5 µM | 20.8 µM | 0.0303 µM |
| COc1ccc(OC(C)C(=O)O)c2c1CCCC2=O (stereo not given) | – | > 100 µM | – | > 100 µM | – | > 100 µM | – | > 100 µM | – | – | – | > 100 µM | – | – | – | > 100 µM | – | > 100 µM | > 100 µM | – |
| Clc1ccc2nc(Cl)c3ccccc3c2c1 | 46.8 µM | > 100 µM | 24.7 µM | > 100 µM | – | – | 44.1 µM | > 100 µM | 23.6 µM | > 100 µM | 10.5 µM | 35.7 µM | 8.21 µM | 72 µM | > 100 µM | > 100 µM | 5.17 µM | 21.2 µM | 60.8 µM | 24.3 µM |
| OCC(O)COc1c(Cl)cc(Cl)cc1Cl (stereo not given) | – | > 100 µM | – | > 100 µM | – | > 64.6 µM | – | > 100 µM | – | – | – | > 100 µM | – | – | – | > 66.1 µM | – | > 100 µM | > 100 µM | – |
| Cc1cccc(C(C)C)c1NC(=O)CCl | – | > 100 µM | – | 59.9 µM | – | > 100 µM | – | 63.2 µM | – | – | – | > 100 µM | – | – | – | > 100 µM | – | > 100 µM | > 100 µM | – |
| Cc1cc(NCc2cc(Nc3ccnc4cc(Cl)ccc34)ccc2F)nc(N2CCSCC2)n1 | – | – | 1.59 µM | 2.93 µM | 1.42 µM | 3.96 µM | – | – | – | – | 1.31 µM | 2.76 µM | 1.77 µM | 4.98 µM | 0.906 µM | 3.35 µM | 1.82 µM | 3.64 µM | 4.71 µM | 2.15 µM |
| C=C1CCC2C(C)(CO)C(O)CCC2(C)C1C/C=C1/CCOC1=O (stereo not given) | – | > 100 µM | – | > 100 µM | – | > 100 µM | – | > 100 µM | – | – | – | > 100 µM | – | – | – | > 100 µM | – | > 100 µM | > 100 µM | – |
| CC(C)CN1CC(C)C(=O)NC1=O (stereo not given) | – | > 100 µM | – | – | – | – | – | > 100 µM | – | – | – | > 100 µM | – | – | – | > 100 µM | – | > 100 µM | > 100 µM | – |
| CCOc1cc2c(=O)oc3c(OC)ccc4ccc(c1OC)c2c43 | – | > 100 µM | – | > 100 µM | – | – | – | > 100 µM | – | > 100 µM | – | > 100 µM | – | > 100 µM | – | > 100 µM | – | > 100 µM | > 100 µM | – |
| CCC(C)c1cccc(C)c1NC(=O)C(=O)Cc1nc2ccccc2s1 (stereo not given) | – | > 100 µM | – | > 100 µM | – | > 100 µM | – | > 100 µM | – | – | – | > 100 µM | – | – | – | > 100 µM | – | > 100 µM | > 100 µM | – |
| Cc1ccc(/C=C/C(=O)c2ccc([N+](=O)[O-])cc2)cc1 | – | > 100 µM | – | > 100 µM | – | – | – | > 100 µM | – | – | – | > 100 µM | – | – | – | > 100 µM | – | > 100 µM | > 100 µM | – |
| CN(C)C(=S)/N=c1\ss/c(=N\C(=S)N(C)C)n1Cc1ccco1 | – | > 100 µM | – | – | – | > 100 µM | – | > 100 µM | – | – | – | – | – | – | – | > 100 µM | – | > 100 µM | > 100 µM | – |
| O=C1CCNC(=O)NC1 | – | > 100 µM | – | > 100 µM | – | > 100 µM | – | > 100 µM | – | – | – | > 100 µM | – | – | – | > 100 µM | – | > 100 µM | > 100 µM | – |
| NC(CCc1ncc(-c2ccccc2)s1)C(=O)O (stereo not given) | – | > 100 µM | – | > 100 µM | – | > 100 µM | – | > 100 µM | – | – | – | > 100 µM | – | – | – | > 100 µM | – | > 100 µM | – | – |
| O=C(CCN1CCCC1)Nc1ccc2c(NCCc3ccccc3)c3ccccc3nc2c1 | 0.297 µM | 1.19 µM | 0.454 µM | 1.73 µM | 0.32 µM | 1.15 µM | 0.316 µM | 1.13 µM | 0.416 µM | 1.52 µM | 0.381 µM | 1.53 µM | – | – | – | – | 0.422 µM | 2.07 µM | 1.63 µM | 0.463 µM |
